According to patent US5143927A, “3-(thiazolidone, oxazolidinone, imidazolidinone)-indoles as antiinflammatory agents” (Warner-Lambert Company, priority 1991, dated 1992):
Like-named read-outs stand apart in the source and are kept apart here.

Assays:
5-lipoxygenase = biological target: T1, 5-lipoxygenase (Rattus norvegicus, UniProt P12527); assay: ARBL whole cell 5-lipoxygenase assay (inhibition of LTB4 formation in RBL-1 cells); format: cell-based; details: for inhibition at 10 µM: A23187 stimulated; for IC50: A23187 (5 μM) stimulated, LTB4 formation
T1 construct: endogenous in cells; host or cells: RBL-1 (rat basophilic leukemia cells, from the American Type Culture Collection)
T1 sequence (P12527 1-673): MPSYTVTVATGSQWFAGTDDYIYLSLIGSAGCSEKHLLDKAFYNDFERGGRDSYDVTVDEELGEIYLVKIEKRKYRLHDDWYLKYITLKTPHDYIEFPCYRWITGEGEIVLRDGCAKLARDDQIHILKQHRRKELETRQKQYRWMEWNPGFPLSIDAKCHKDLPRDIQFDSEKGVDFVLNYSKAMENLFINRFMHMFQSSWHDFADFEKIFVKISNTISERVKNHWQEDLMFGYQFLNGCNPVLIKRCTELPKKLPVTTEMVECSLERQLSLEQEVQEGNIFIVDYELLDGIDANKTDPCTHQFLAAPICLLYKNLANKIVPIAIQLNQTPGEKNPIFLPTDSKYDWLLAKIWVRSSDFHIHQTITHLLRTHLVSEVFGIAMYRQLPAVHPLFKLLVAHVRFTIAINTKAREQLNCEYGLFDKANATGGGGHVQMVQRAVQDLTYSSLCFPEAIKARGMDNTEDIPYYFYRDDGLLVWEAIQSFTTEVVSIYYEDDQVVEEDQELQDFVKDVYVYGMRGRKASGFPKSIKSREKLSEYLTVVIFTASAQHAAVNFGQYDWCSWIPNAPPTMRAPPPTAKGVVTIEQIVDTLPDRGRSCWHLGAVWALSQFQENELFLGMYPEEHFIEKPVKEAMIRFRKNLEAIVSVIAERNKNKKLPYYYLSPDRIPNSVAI
Method: (§1) ARBL/ARBC WHOLE CELL 5-LIPOXYGENASE AND CYCLOOXYGENASE ASSAYS
(§2) The rat basophilic leukemia cell line (RBL-1) was obtained from the American Type Culture Collection (Rockville, Md.).
(§3) Radioimmunoassay (RIA) kits of LTB4 and PGF2α were obtained from Amersham (Arlington Heights, Ill.) and Seragen (Boston, Mass.), respectively.
(§4) RBL-1 cells are grown in suspension culture in Eagle's minimum essential medium supplemented with 12% fetal bovine serum at 37° C. in an incubator supplied with air 5% carbon dioxide. Cells are harvested by centrifugation. They are washed with cold phosphate buffered saline, pH 7.4 (PBS; NaCl, 7.1 g; Na2 HPO4, 1.15 g; KH2 PO4, 0.2 g; and KCl, 0.2 g/L). Cells are finally suspended in PBS containing 1.0 mM calcium at a density of 2×10^6 cells/mL. Cells are incubated […] test agent (in DMSO) (1% DMSO is without effect on arachidonic acid metabolism) for 10 minutes at room temperature. Calcium ionophore A23187 (5 μM) is added and cells are incubated for 7 minutes at 37° C. The reaction is stopped by chilling the tubes on ice for 10 minutes. Cells are separated by centrifugation and the supernatant is stored at -20° C. Aliquots (100 μL) are analyzed for LTB4 and PGF2α using radioimmunoassay kits as provided by the supplier.
(§5) Table 1 contains biochemical data for compounds of formula I obtained from this whole cell assay as amount of inhibition at 10 μM or IC50 s which are calculated as the concentration of a test compound in micromoles (μM) causing 50% inhibition of LTB4 or PGF2α formation.

cyclooxygenase = biological target: T2, cyclooxygenase (Rattus norvegicus, UniProt Q63921); assay: ARBC whole cell cyclooxygenase assay (inhibition of PGF2α formation in RBL-1 cells); format: cell-based; details: for inhibition at 10 µM: A23187 stimulated, read-out: ARBC, inhibition of PGF2; for IC50: A23187 (5 μM) stimulated, PGF2α formation, read-out: ARBC, inhibition of PGF2, IC50
T2 construct: endogenous in cells; host or cells: RBL-1 (rat basophilic leukemia cells, from the American Type Culture Collection)
T2 sequence (Q63921 27-602): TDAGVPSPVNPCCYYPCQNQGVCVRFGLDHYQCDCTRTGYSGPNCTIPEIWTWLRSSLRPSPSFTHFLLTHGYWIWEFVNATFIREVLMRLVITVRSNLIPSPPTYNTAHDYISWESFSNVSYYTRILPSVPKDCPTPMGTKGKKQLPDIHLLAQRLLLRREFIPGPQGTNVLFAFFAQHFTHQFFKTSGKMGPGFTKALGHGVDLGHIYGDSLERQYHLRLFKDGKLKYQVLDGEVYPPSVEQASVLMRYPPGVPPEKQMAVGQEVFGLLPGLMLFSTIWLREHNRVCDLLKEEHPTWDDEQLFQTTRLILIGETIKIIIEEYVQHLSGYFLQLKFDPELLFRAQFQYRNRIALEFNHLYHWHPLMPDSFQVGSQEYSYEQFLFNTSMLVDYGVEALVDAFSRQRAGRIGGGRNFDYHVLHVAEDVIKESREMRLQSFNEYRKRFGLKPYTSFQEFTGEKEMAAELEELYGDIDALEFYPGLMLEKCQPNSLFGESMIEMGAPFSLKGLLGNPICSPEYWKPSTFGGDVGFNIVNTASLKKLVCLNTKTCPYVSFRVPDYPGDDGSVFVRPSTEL
Method: as §1, §2, §3, §4, §5

SMILES	inhibition at 10 µM (cyclooxygenase; class symbol, 10 μM)	inhibition at 10 µM (5-lipoxygenase; inhibition at 10 μM)	IC50 (5-lipoxygenase)	IC50 (cyclooxygenase)	further results
COc1ccc2[nH]c(C)c(/C=C3\SC(NC#N)=NC3=O)c2c1 [Example 2, (Z)-[4,5-Dihydro-5-[(5-methoxy-2-methyl-1H-indol-3-yl)methylene]-4-oxo-2-thiazolyl]-cyanamide]	< 40%				inhibition at 10 µM (5-lipoxygenase; class symbol, 10 μM): < 40%
COc1ccc2c(c1)c(/C=C1\SC(=S)N(CC(=O)O)C1=O)c(C)n2C(=O)c1ccc(Cl)cc1 [Example 4, (Z)-5-[[1-(4-Chlorobenzoyl)-5-methoxy-2-methyl-1H-indol-3-yl]methylene]-4-oxo-2-thioxo-3-thiazolidine acetic acid]		90%			inhibition at 10 µM (cyclooxygenase; inhibition at 10 μM): 60%
COc1ccc2[nH]c(C)c(/C=C3\SC(SC)=NC3=O)c2c1 [Example 1, (Z) -5-[(5 -Methoxy-2-methyl-1H -indol-3-yl)methylene]-2-(methylthio)-4(5H)-thiazolone]			8230 nM	290 nM	
CSC1=NC(=O)/C(=C/c2c(C)[nH]c3ccccc23)S1 [Example 3, (Z) -5-[(2-Methyl-1H-indol-3-yl)methylene]-2-(methylthio)-4(5H)-thiazolone]			4430 nM	140 nM	
COc1ccc2c(c1)c(/C=C1\SC(N)=NC1=O)c(C)n2C(=O)c1ccc(Cl)cc1 [Example 5, (Z)-5-[[1-(4-Chlorobenzoyl)-5-methoxy-2-methyl-1H-indol-3-yl]methylene]-2-imino-4-thiazolidinone]	< 40%	48%			
